Converted amounts (≈) assume the structure as drawn. “And” between values parts separate entries of the source, which are not always exact repeats. Equal entries are not always repeated. Where two headings read alike, the source gives them in different places.
What was measured:
[1] = tested on: H37Rv strain of Mycobacterium tuberculosis; test: microbe, parasite or virus in culture; type: cell-based
M. tuberculosis H37Rv [2] = test: MIC by BACTEC 460; type: cell-based, Mycobacterium tuberculosis; conditions: Mycobacterium tuberculosis, H37RV, reference in head of Table 11; read-out: BACTEC MIC of EMB
wild type of M.tb = test: MIC, secondary screening, wild type; type: cell-based, Mycobacterium tuberculosis; conditions: WT
M. tuberculosis H37Rv [3] = test: In vivo efficacy, mice infected i.v. with M. tuberculosis, CFU in spleen and lungs; set-up: species or system C57BL/6 mice; conditions: during 4-6 weeks of chemotherapy
[4] = tested on: RIF^R M. tuberculosis isolate 3185; test: microbe, parasite or virus in culture; type: cell-based
[5] = tested on: RIF^R M. tuberculosis isolate 2482; test: microbe, parasite or virus in culture; type: cell-based; conditions: strain 2482
[6] = tested on: RIF^R M. tuberculosis strain 3185; type: cell-based; conditions: strain 3185
[7] = tested on: RIF^R M. tuberculosis strain 2482; type: cell-based; conditions: strain 2482
[8] = tested on: M. tuberculosis H37Rv (Pasteur); test: Rapid in vivo model of TB, body weight of infected mice; set-up: species or system C3H female mice; conditions: Rif (2 mg/kg)-EMB (10 mg/kg) combination
M. tuberculosis H37Rv [9] = test: Standard chronic mouse model of tuberculosis, CFU in lung; type: in vivo, C57BL/6 female mice; conditions: INH+RIF+EMB at 25, 20 and 100 mg/kg, wk 4
[10] = tested on: H37Rv strain of Mycobacterium tuberculosis; conditions: background statement; cited from earlier work

CC[C@@H](CO)NCCN[C@@H](CC)CO [EMB, Ethambutol, reference compound]
MIC [1]: 8.37 µM and 7.25 µM | MIC ([1]; Mycobacterium tuberculosis, H37RV, read-out: MIC): 7.19 µM (≈ 1.47 µg/mL) | MIC (M. tuberculosis H37Rv [2]): 2.5 µg/mL | MIC (wild type of M.tb; Mycobacterium tuberculosis, value in brackets, read-out: MIC (or uM)): 11.1 µM | MIC (wild type of M.tb; Mycobacterium tuberculosis, EMB, RL241, Cmpd#59 as 2HCl salt, Cmpd#109 as 2CF3COOH salt, read-out: MIC): 3.12 µg/mL | MIC (wild type of M.tb; EMB, RL241, Cmpd#59 as 2HCl salt, Cmpd#109 as 2CF3COOH salt): 1.6 to 1.8 µg/mL | decrease of load of bacteria in organs (M. tuberculosis H37Rv [3]): 1.0-2.0 logs | MIC ([4]; Mycobacterium tuberculosis, read-out: MIC (BACTEC)): 2.5 µg/mL (≈ 12.2 µM) | concentration to which the strain was susceptible ([4]; strain 3185): 2.5 mg/L | concentration to which the strain was susceptible [5]: 2.5 mg/L | interaction of 0.5 MIC ethambutol with rifampicin [6]: synergy was not observed | interaction of 0.5 MIC ethambutol with rifampicin [7]: did not show any additive or synergistic activity | body weight of infected mice [8]: No improvement | CFU in lung (M. tuberculosis H37Rv [9]): 3.7 log10CFU | Minimum Inhibition Concentration (MIC) [10]: about 5 μg/ml

From patent US8202910B2 (Sequella, Inc., priority 2006, dated 2012)
